Measured values: patent publication US9409905B2, “Antibacterial compounds and methods for use” (PTC THERAPEUTICS, INC., priority 2011, dated 2016)
≈ marks a conversion by molar mass, not a printed value.

Columns and labels:
[1] = test system: Escherichia coli (E. coli) BAS849; assay: Antibacterial activity, microbroth dilution MIC (Table 1); type: cell-based; settings: microbroth dilution, super sensitive Gram-negative E. coli BAS849, read-out: MIC, BAS849
Description: (§1) The antibacterial activity from a microbroth dilution method may be presented as the minimum inhibitory concentration (MIC in μg/mL). The MIC value is the lowest concentration of drug which prevents macroscopically visible growth under test conditions.
(§2) Antibacterial activity of test compounds against the super sensitive Gram-negative Escherichia coli (E. coli) BAS849 bacterium, the control Gram-negative E. coli 25922 strain and the Gram-positive Staphylococcus aureus (S. aureus) 29213 bacterium are shown in Table 1.

[2] = test system: Staphylococcus aureus (S. aureus) 29213; assay: as above; type: cell-based; settings: microbroth dilution, Gram-positive S. aureus 29213, read-out: MIC, 29213
Description: as §1, §2

[3] = test system: E. coli 25922; assay: as above; type: cell-based, Escherichia coli; settings: Escherichia coli; microbroth dilution; control Gram-negative E. coli 25922 strain; read-out: MIC, 25922
Description: as §1, §2

[4] = test system: E. coli LZ3111; assay: Antibacterial activity, MIC, quinolone resistant strain (Table 2); type: cell-based; settings: Escherichia coli, LZ3111, read-out: MIC LZ3111
Description: as §1
Mutations in these regions are known to confer a high level resistance to the quinolone class of antibiotics.

Row | SMILES | MIC [1] [µg/mL] | MIC [2] [µg/mL] | MIC [3] [µg/mL] | MIC [4] [µg/mL]
1 | CCc1c(-c2ccc3c(c2)cc(CNc2ccccc2)n3C)[nH]c(=O)c(C(=O)O)c1O [Cpd 213, 5-ethyl-4-hydroxy-6-(1-methyl-2-((phenylamino)methyl)-1H-indol-5-yl)-2-oxo-1,2-dihydropyridine-3-carboxylic acid] | < 1 | 1 to 3.5 (≈ 2.4 to 8.38 µM) | 12.5 to 150 (≈ 29.9 to 359 µM) | 12.5 to 150 (≈ 29.9 to 359 µM)
2 | CCc1cc(C(=O)O)c(=O)[nH]c1-c1cc2cc(CN(CC)CC)n(C)c2cc1Cl [Cpd 92, 6-(6-chloro-2-((diethylamino)methyl)-1-methyl-1H-indol-5-yl)-5-ethyl-2-oxo-1,2-dihydropyridine-3-carboxylic acid] | 12.5 to 150 (≈ 30.1 to 361 µM) | 12.5 to 150 (≈ 30.1 to 361 µM) | 12.5 to 150 (≈ 30.1 to 361 µM) | 12.5 to 150 (≈ 30.1 to 361 µM)
3 | CCc1cc(C(=O)O)c(=O)[nH]c1-c1cc(C)c2c(c1)cc(CN1CCCC1)n2C [Cpd 99, 6-(1,7-dimethyl-2-(pyrrolidin-1-ylmethyl)-1H-indol-5-yl)-5-ethyl-2-oxo-1,2-dihydropyridine-3-carboxylic acid] | < 1 | 12.5 to 150 (≈ 31.8 to 381 µM) | 3.5 to 12.5 (≈ 8.89 to 31.8 µM) | 12.5 to 150 (≈ 31.8 to 381 µM)
4 | CCc1c(-c2ccc3c(c2)cc(CNCc2ccc(C)cc2)n3C)[nH]c(=O)c(C(=O)O)c1O [Cpd 297, 5-ethyl-4-hydroxy-6-(1-methyl-2-((4-methylbenzylamino)methyl)-1H-indol-5-yl)-2-oxo-1,2-dihydropyridine-3-carboxylic acid] | < 1 | 1 to 3.5 (≈ 2.24 to 7.86 µM) | < 1 | 12.5 to 150 (≈ 28.1 to 337 µM)
5 | CCc1c(-c2ccc3c(c2)c(Cl)cn3C)[nH]c(=O)c(C(=O)O)c1O [Cpd 363, 6-(3-chloro-1-methyl-1H-indol-5-yl)-5-ethyl-4-hydroxy-2-oxo-1,2-dihydropyridine-3-carboxylic acid] | < 1 | 1 to 3.5 (≈ 2.88 to 10.1 µM) | 12.5 to 150 (≈ 36 to 433 µM) | 1 to 3.5 (≈ 2.88 to 10.1 µM)
6 | CCc1c(-c2ccc3c(c2)cc(CNCc2cccc(F)c2)n3C)[nH]c(=O)c(C(=O)O)c1O [Cpd 298, 5-ethyl-6-(2-((3-fluorobenzylamino)methyl)-1-methyl-1H-indol-5-yl)-4-hydroxy-2-oxo-1,2-dihydropyridine-3-carboxylic acid] | < 1 | 1 to 3.5 (≈ 2.22 to 7.79 µM) | 1 to 3.5 (≈ 2.22 to 7.79 µM) | 12.5 to 150 (≈ 27.8 to 334 µM)
7 | CCc1c(-c2ccc3c(c2)cc(CN2CCC2)n3C)[nH]c(=O)c(C(=O)O)c1C(=O)O [Cpd 109, 6-(2-(azetidin-1-ylmethyl)-1-methyl-1H-indol-5-yl)-5-ethyl-2-oxo-1,2-dihydropyridine-3,4-dicarboxylic acid] | 12.5 to 150 (≈ 30.5 to 366 µM) | 12.5 to 150 (≈ 30.5 to 366 µM) | 12.5 to 150 (≈ 30.5 to 366 µM) | 12.5 to 150 (≈ 30.5 to 366 µM)
8 | CCc1c(-c2ccc3c(c2)cc(CN[C@H]2[C@@H]4CNC[C@@H]42)n3C)[nH]c(=O)c(C(=O)O)c1O [Cpd 198, 6-(2-(((1R,5S,6s)-3-azabicyclo[3.1.0]hexan-6-ylamino)methyl)-1-methyl-1H-indol-5-yl)-5-ethyl-4-hydroxy-2-oxo-1,2-dihydropyridine-3-carboxylic acid] | 1 to 3.5 (≈ 2.37 to 8.28 µM) | 12.5 to 150 (≈ 29.6 to 355 µM) | 12.5 to 150 (≈ 29.6 to 355 µM) | 12.5 to 150 (≈ 29.6 to 355 µM)
9 | CCc1c(-c2ccc3c(c2)cc(CN2CCCCC2CCCOC)n3C)[nH]c(=O)c(C(=O)O)c1O (stereo not shown) [Cpd 260, 5-ethyl-4-hydroxy-6-(2-((2-(3-methoxypropyl)piperidin-1-yl)methyl)-1-methyl-1H-indol-5-yl)-2-oxo-1,2-dihydropyridine-3-carboxylic acid] | < 1 | 3.5 to 12.5 (≈ 7.27 to 26 µM) | 3.5 to 12.5 (≈ 7.27 to 26 µM) | 12.5 to 150 (≈ 26 to 311 µM)
10 | CCc1c(-c2ccc3c(c2)cc(CNCC2CCCCCC2)n3C)[nH]c(=O)c(C(=O)O)c1O [Cpd 301, 6-(2-((cycloheptylmethylamino)methyl)-1-methyl-1H-indol-5-yl)-5-ethyl-4-hydroxy-2-oxo-1,2-dihydropyridine-3-carboxylic acid] | < 1 | 3.5 to 12.5 (≈ 7.75 to 27.7 µM) | 12.5 to 150 (≈ 27.7 to 332 µM) | 12.5 to 150 (≈ 27.7 to 332 µM)
11 | CCc1c(-c2ccc3c(c2)cc(CN2CCC(F)(F)CC2)n3C)[nH]c(=O)c(C(=O)O)c1O [Cpd 249, 6-(2-((4,4-difluoropiperidin-1-yl)methyl)-1-methyl-1H-indol-5-yl)-5-ethyl-4-hydroxy-2-oxo-1,2-dihydropyridine-3-carboxylic acid] | < 1 | 1 to 3.5 (≈ 2.24 to 7.86 µM) | 12.5 to 150 (≈ 28.1 to 337 µM) | 12.5 to 150 (≈ 28.1 to 337 µM)
12 | CCc1cc(C(=O)O)c(=O)[nH]c1-c1ccc2c(c1)cc(CN[C@H](C)c1ccccc1)n2C [Cpd 116, (R)-5-ethyl-6-(1-methyl-2-((1-phenylethylamino)methyl)-1H-indol-5-yl)-2-oxo-1,2-dihydropyridine-3-carboxylic acid] | < 1 | 1 to 3.5 (≈ 2.33 to 8.15 µM) | < 1 | 12.5 to 150 (≈ 29.1 to 349 µM)
13 | CCc1cc(C(=O)O)c(=O)[nH]c1-c1ccc2c(c1)cc(CN1CCc3ccccc3C1)n2C [Cpd 134, 6-(2-((3,4-dihydroisoquinolin-2(1H)-yl)methyl)-1-methyl-1H-indol-5-yl)-5-ethyl-2-oxo-1,2-dihydropyridine-3-carboxylic acid] | < 1 | 3.5 to 12.5 (≈ 7.93 to 28.3 µM) | 1 to 3.5 (≈ 2.26 to 7.93 µM) | 12.5 to 150 (≈ 28.3 to 340 µM)
14 | CCc1c(-c2ccc3c(c2)cc(CN2CC(C(=O)N(C)C)C2)n3C)[nH]c(=O)c(C(=O)O)c1O [Cpd 270, 6-(2-((3-(dimethylcarbamoyl)azetidin-1-yl)methyl)-1-methyl-1H-indol-5-yl)-5-ethyl-4-hydroxy-2-oxo-1,2-dihydropyridine-3-carboxylic acid] | < 1 | 3.5 to 12.5 (≈ 7.73 to 27.6 µM) | 3.5 to 12.5 (≈ 7.73 to 27.6 µM) | 12.5 to 150 (≈ 27.6 to 331 µM)
15 | CCc1cc(C(=O)O)c(=O)[nH]c1-c1cc(F)c2c(c1)cc(CN1CCCC1)n2C [Cpd 97, 5-ethyl-6-(7-fluoro-1-methyl-2-(pyrrolidin-1-ylmethyl)-1H-indol-5-yl)-2-oxo-1,2-dihydropyridine-3-carboxylic acid] | < 1 | 12.5 to 150 (≈ 31.5 to 377 µM) | 1 to 3.5 (≈ 2.52 to 8.81 µM) | 12.5 to 150 (≈ 31.5 to 377 µM)
16 | CCc1cc(C(=O)O)c(=O)[nH]c1-c1cc2cc(CN(C)C)n(C)c2s1.Cl [Cpd 65, 6-(5-((dimethylamino)methyl)-6-methyl-6H-thieno[2,3-b]pyrrol-2-yl)-5-ethyl-2-oxo-1,2-dihydropyridine-3-carboxylic acid hydrochloride] | < 1 | 12.5 to 150 | 3.5 to 12.5 | 12.5 to 150
17 | CCc1cc(C(=O)O)c(=O)[nH]c1-c1ccc2nc(CN3CCCCC3)cn2c1.Cl.Cl [Cpd 62, 5-ethyl-2-oxo-6-(2-(piperidin-1-ylmethyl)imidazo[1,2-a]pyridin-6-yl)-1,2-dihydropyridine-3-carboxylic acid dihydrochloride] | 12.5 to 150 | 12.5 to 150 | 12.5 to 150 | 12.5 to 150
18 | Cn1c(CN2CCC2)cc2cc(-c3[nH]c(=O)c(C(=O)O)c(O)c3-c3ccc(F)cc3)ccc21 [Cpd 312, 6-(2-(azetidin-1-ylmethyl)-1-methyl-1H-indol-5-yl)-5-(4-fluorophenyl)-4-hydroxy-2-oxo-1,2-dihydropyridine-3-carboxylic acid] | < 1 | 12.5 to 150 (≈ 27.9 to 335 µM) | 3.5 to 12.5 (≈ 7.82 to 27.9 µM) | 12.5 to 150 (≈ 27.9 to 335 µM)
19 | CCc1cc(C(=O)O)c(=O)[nH]c1-c1ccc2c(c1)cc(CN1CCN(C(C)=O)CC1)n2C [Cpd 144, 6-(2-((4-acetylpiperazin-1-yl)methyl)-1-methyl-1H-indol-5-yl)-5-ethyl-2-oxo-1,2-dihydropyridine-3-carboxylic acid] | < 1 | 12.5 to 150 (≈ 28.6 to 344 µM) | 3.5 to 12.5 (≈ 8.02 to 28.6 µM) | 12.5 to 150 (≈ 28.6 to 344 µM)
